Test results: PMC4452912 (Viruses, 2015)
Like-named read-outs stand apart in the source and are kept apart here.

What was measured:
[1] = tested on: DENV2 strain S221; experiment: Dengue viral load by qRT-PCR in serum and tissues of AG129 mice; type: in vivo; conditions: 100 mg/kg TID
[2] = physchem; conditions: aqueous buffer
[3] = in vitro; type: in vitro ADME; conditions: human, plasma
[4] = tested on: ER α-glucosidases I and II; experiment: Cellular free oligosaccharide (FOS) assay in HL60 cells; type: cell-based, human; conditions: 24 h, mono- and tri-glucosylated FOS
[5] = in vitro; type: cell-based; conditions: African green monkey
[6] = molecular target: CYP3A4 (Homo sapiens, UniProt P08684); experiment: CYP inhibition in human liver microsomes, CYP3A4; type: in vitro ADME
[7] = in vitro; type: in vitro ADME; conditions: rat, microsomes
[8] = tested on: DENV (serotype 2, New Guinea C isolate); experiment: microbe, parasite or virus in culture; type: cell-based; conditions: Dengue virus, DENV2, 120 h; Vero cells, MOI 0.01, 5 days; mean of duplicate
[9] = in vitro; type: in vitro ADME; conditions: dog, microsomes
[10] = tested on: circulating cytokines and chemokines; experiment: Serum cytokine levels in DENV infected AG129 mice (23-plex); type: in vivo; conditions: 100 mg/kg TID
[11] = Guinea pig pharmacokinetics; type: in vivo, Hartley guinea pigs; conditions: Hartley; for half-life: plasma, guinea pigs
[12] = Mouse pharmacokinetics; type: in vivo, Swiss Albino mice; conditions: male, Swiss Albino
[13] = tested on: Venezuelan Equine Encephalitis virus (VEEV, TC-83 vaccine strain); experiment: microbe, parasite or virus in culture; type: cell-based; conditions: Vero, 72 h, read-out: IC50 VEEV
[14] = in vitro; type: in vitro ADME; conditions: rat, plasma
[15] = Maximum tolerated dose in guinea pigs; type: in vivo, Hartley guinea pigs; conditions: for MTD at 7 days: female, Hartley, guinea pig, in vivo, single bolus
[16] = tested on: DENV2 strain S221; type: in vivo, AG129 mice
[17] = in vitro; type: in vitro ADME; conditions: mouse, microsomes
[18] = in vitro; type: in vitro ADME; conditions: dog, plasma
[19] = in vitro; type: in vitro ADME; conditions: human, Caco-2
[20] = molecular target: CYP2D6 (Homo sapiens, UniProt P10635); experiment: CYP inhibition in human liver microsomes, CYP2D6; type: in vitro ADME
[21] = 72 h post infection, vs vehicle

Chain of CYP3A4 (P08684 whole entry): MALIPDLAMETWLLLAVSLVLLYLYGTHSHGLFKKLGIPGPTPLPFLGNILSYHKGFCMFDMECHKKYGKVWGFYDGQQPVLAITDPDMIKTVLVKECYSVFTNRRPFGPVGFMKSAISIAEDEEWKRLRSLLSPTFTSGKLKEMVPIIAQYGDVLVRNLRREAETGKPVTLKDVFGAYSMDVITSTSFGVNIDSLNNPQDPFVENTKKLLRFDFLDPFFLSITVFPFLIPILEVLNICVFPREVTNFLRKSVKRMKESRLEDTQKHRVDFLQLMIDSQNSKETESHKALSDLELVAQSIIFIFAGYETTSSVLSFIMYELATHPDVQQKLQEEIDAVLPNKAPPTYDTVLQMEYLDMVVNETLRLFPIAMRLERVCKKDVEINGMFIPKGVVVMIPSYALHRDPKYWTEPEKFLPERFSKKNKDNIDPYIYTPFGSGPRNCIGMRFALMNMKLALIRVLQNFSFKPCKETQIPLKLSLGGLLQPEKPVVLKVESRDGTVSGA
Chain of CYP2D6 (P10635 whole entry): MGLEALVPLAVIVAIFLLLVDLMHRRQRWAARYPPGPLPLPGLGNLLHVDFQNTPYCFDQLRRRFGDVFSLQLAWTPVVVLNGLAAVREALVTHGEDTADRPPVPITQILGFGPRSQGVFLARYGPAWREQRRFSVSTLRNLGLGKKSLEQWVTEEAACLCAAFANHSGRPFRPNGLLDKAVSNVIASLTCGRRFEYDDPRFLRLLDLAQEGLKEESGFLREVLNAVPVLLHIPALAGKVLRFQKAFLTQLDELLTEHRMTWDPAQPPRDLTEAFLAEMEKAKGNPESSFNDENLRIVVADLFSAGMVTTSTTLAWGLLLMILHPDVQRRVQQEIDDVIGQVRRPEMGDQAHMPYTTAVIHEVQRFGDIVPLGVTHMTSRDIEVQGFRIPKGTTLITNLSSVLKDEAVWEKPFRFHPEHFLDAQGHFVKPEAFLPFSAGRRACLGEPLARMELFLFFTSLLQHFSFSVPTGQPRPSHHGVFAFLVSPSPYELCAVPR

OC[C@@H]1[C@@H](O)[C@H](O)[C@@H](O)CN1CCCCCCCCC1CCCO1 (some centres unmarked) [UV-12]
viral loads in serum, liver or spleens ([1]; 72 and 96 h): not reduced | decrease in viral load, kidneys [1, 21]: 12.9 fold | decrease in viral load, small intestine [1, 21]: 6.1 fold | increase in virus titers, spleens ([1]; 72 h time point): 5 fold | decrease in viral load, kidneys ([1]; 96 h post infection, vs vehicle): 5.23 fold | solubility [2]: > 100 mg/mL | fraction unbound at 6 h, 10 μM [3]: 0.32 | inhibition of ER α-glucosidase enzymes in cell-based FOS assay [4]: inhibited | CC50 at 5 days [5]: > 500 µM | IC50 [6]: > 100 µM | Liver microsome metabolic stability CLintr [7]: <0.6 mL/min/g liver | half-life at 0.5 µM [7]: > 30 min | parent drug remained after 30 min ([7]; 0.5 h, 0.5 µM): 100% | IC50 [8]: 21.7 µM | Liver microsome metabolic stability CLintr [9]: <0.6 mL/min/g liver | half-life at 0.5 µM [9]: > 30 min | parent drug remained after 30 min ([9]; 0.5 h, 0.5 µM): 100% | Levels of IL-9 and eotaxin [10]: not different | reduction in MCP-1 ([10]; 72 h, p = 0.0641): not significant | KC levels ([10]; 72 h only): significantly higher | Levels of IFN-γ ([10]; only at 72 h): significantly reduced | MIP-1β, RANTES, and IL-10 levels ([10]; only at 96 h): reduced | overall circulating cytokine levels ([10]; vs vehicle): dampened | Cmax ([11]; in vivo): 8850 to 11600 ng/mL | Tmax ([11]; in vivo): 15 to 30 min | AUC(0-inf) ([11]; female, in vivo, im, 100 mg/kg): 19200 ng·h/mL | AUC(0-t) ([11]; female, in vivo, im, 100 mg/kg): 19100 ng·h/mL | Cmax ([11]; female, in vivo, im, 100 mg/kg): 11600 ng/mL | Tmax ([11]; female, in vivo, im, 100 mg/kg): 15 min | bioavailability ([11]; female, in vivo, im, 100 mg/kg): 109% | Vss relative to normal body water ([11]; female, in vivo, iv): > 8 fold | AUC(0-inf) ([11]; female, in vivo, iv, 25 mg/kg): 4400 ± 599 ng·h/mL | AUC(0-t) ([11]; female, in vivo, iv, 25 mg/kg): 4370 ± 583 ng·h/mL | Cmax ([11]; female, in vivo, iv, 25 mg/kg): 8860 ng/mL | Vd ([11]; female, in vivo, iv, 25 mg/kg): 5.14 ± 0.64 L/kg | clearance ([11]; female, in vivo, iv, 25 mg/kg): 95.9 ± 12.7 mL/min/kg | AUC(0-inf) ([11]; female, in vivo, sc, 100 mg/kg): 23100 ng·h/mL | AUC(0-t) ([11]; female, in vivo, sc, 100 mg/kg): 23000 ng·h/mL | Cmax ([11]; female, in vivo, sc, 100 mg/kg): 11000 ng/mL | Tmax ([11]; female, in vivo, sc, 100 mg/kg): 30 min | bioavailability ([11]; female, in vivo, sc, 100 mg/kg): 131% | half-life ([11]; female, IM 100 mg/kg): 119 ± 54.6 min | half-life ([11]; female, IV 25 mg/kg): 84 ± 5.4 min | half-life ([11]; female, SC 100 mg/kg): 133 ± 22.2 min | Cmax ([12]; in vivo): 8880 to 12600 ng/mL | bioavailability ([12]; in vivo): 77% | CL as % of mouse liver blood flow ([12]; in vivo, iv): 31% | Vss relative to total body water ([12]; in vivo, iv): 3 fold | AUC(0-inf) ([12]; in vivo, iv, 10 mg/kg): 5910 ng·h/mL | AUC(0-t) ([12]; in vivo, iv, 10 mg/kg): 5900 ng·h/mL | Cmax ([12]; in vivo, iv, 10 mg/kg): 8880 ng/mL | Vd ([12]; in vivo, iv, 10 mg/kg): 1.98 L/kg | clearance ([12]; in vivo, iv, 10 mg/kg): 28.2 mL/min/kg | AUC(0-inf) ([12]; in vivo, po, 100 mg/kg): 45500 ng·h/mL | AUC(0-t) ([12]; in vivo, po, 100 mg/kg): 43100 ng·h/mL | Cmax ([12]; in vivo, po, 100 mg/kg): 12600 ng/mL | Tmax ([12]; in vivo, po, 100 mg/kg): 30 min | half-life ([12]; plasma, mice, IV 10 mg/kg): 115 min | IC50 [13]: 69.4 µM | fraction unbound at 6 h, 10 μM [14]: 0.32 | clinical signs and mortality, 7 days observation ([15]; IM 20-100 mg/kg, IV 10-80 mg/kg): no clinical signs of toxicity or mortality | MTD at 7 days ([15]; IV route): > 80 mg/kg | MTD at 7 days ([15]; im, intramuscular route): > 100 mg/kg | animals protected (survival) ([16]; 20 mg/kg PO TID 7 days from 1 h before challenge): 100% | animals protected (survival) ([16]; 100 mg/kg PO TID 7 days from 1 h before challenge): 100% | Liver microsome metabolic stability CLintr [17]: <0.6 mL/min/g liver | half-life at 0.5 µM [17]: > 30 min | parent drug remained after 30 min ([17]; 0.5 h, 0.5 µM): 100% | fraction unbound at 6 h, 10 μM [18]: 0.28 | efflux ratio at 10 µM [19]: 4 | IC50 [20]: > 100 µM
